Earlier results as cited in patent US10463679B2, “Compressed capsules for giving birth to males” (priority 2016, dated 2019).

Tests used:
[1] = manufacturer's web site and prescription accompanying Florinef tablet
[2] = sodium and chloride intake per day
[3] = test system: mice; details: for mice
[4] = one liter administered intravenously; glucose 5% + water, saline 9% sodium chloride + water, albumin

For `C[C@]12CCC(=O)C=C1CC[C@H]1[C@@H]3CC[C@](O)(C(=O)CO)[C@@]3(C)C[C@H](O)[C@@]12F` [Fludrocortisone], the “side effects of the drug” value [1] is given as “skin thinning and fragility”.

For `[Cl-].[Na+]` [Sodium chloride], the harmful dose [2] is listed as 1000 g per day and the lethal dose [3] is listed as 2.5 g/kg per day.

For Saline, the “distribution of the solution among the three regions (intracellular, intercellular, blood vessels)” value [4] is listed as “distributed among the three regions but precipitated in the intercellular region”.
